According to patent US20060166956A1, “Use of anecortave acetate for the protection of visual acuity in patients with age related macular degeneration” (priority 2002, published 2006):

Key:
[1] = tested on: patients with subfoveal choroidal neovascularization (CNV) secondary to AMD; assay: Clinical trial: best-corrected log MAR visual acuity after single posterior juxtascleral administration; assay type: in vivo
Excerpt: (§1) This ongoing trial was initiated to compare the clinical efficacy of anecortave acetate versus placebo treatment for preservation (maintenance) of vision and inhibition of CNV lesion growth. Patients with a log MAR visual acuity of 0.3 (20/40 Snellen equivalent) to 1.2 (20/320 Snellen equivalent) and primary or recurrent subfoveal choroidal neovascularization (CNV) secondary to AMD with a lesion up to 30.48 mm^2 (12 disc areas) in size were enrolled. At Baseline and follow-up visits, best-corrected log MAR visual acuity was obtained on all patients using guidelines previously established for the Early Treatment Diabetic Retinopathy Study. Patient lesion eligibility for this study was determined from standardized fluorescein angiograms at the Digital Angiography Reading Center (DARC) by certified Readers (trained retina specialists) prior to enrollment and treatment. The DARC also evaluated changes from Baseline in the fluorescein angiographic characteristics of the lesions in masked fashion. Each data point represents the average of at least two independent evaluations by DARC Readers. Because all angiographic data for this study is being collected using the same fundus camera and digital camera systems and stored as uncompressed digital images, the actual lesion surface areas can be more closely approximated in mm^2 rather than requiring the disc area “best-fit” estimates previously used for film angiographic data.
The 128 patients in this double-masked, dose-response study were enrolled and treated between April 1999 and May 2001 by 18 participating sites in the US and EU. Prior to treatment, patients were enrolled and equally randomized to anecortave acetate sterile suspension for injection 30 mg (N=33), 15 mg (N=33), or 3 mg (N=32) or to placebo (vehicle, N=30). Masking of the clinical sites as to treatment group is being maintained in two ways. Study medication is masked by placing the treatment kits including study medication and supplies for the posterior juxtascleral administration in sealed opaque boxes identified by patient number only. The boxes were numbered sequentially at each clinical site and patients were assigned the next available sequential number upon enrollment. The randomization was built into the sequential numbering of the treatment kits and blocked within each site to maintain equal distribution across treatment assignments. Masking as to treatment group is also being maintained at each site by having an unmasked injecting investigator perform the treatments and a masked examining investigator perform the subsequent evaluations. Upon enrollment of each patient, anecortave acetate or placebo was administered behind the eye as a 0.5 mL posterior juxtascleral injection onto the outer surface of the sclera near the macula using a specially designed cannula. The cannula is described in commonly owned U.S. Pat. No. 6,413,245B 1.
Clinical efficacy data is being obtained from evaluations of best-corrected log MAR visual acuity and standardized fluorescein angiograms. Clinical safety data obtained from general physical examinations, laboratory evaluations of blood and urine, and complete ophthalmic examinations, including indocyanine green angiography, continue to be periodically evaluated by the Independent Safety Committee overseeing this study. Clinical data from evaluations for safety and efficacy performed at Day 1-2, Week 2, Week 6, Month 3, and Month 6 following patient randomization and treatment are reported here. […]

[2] = tested on: patients with exudative AMD; assay: Clinical trial: clinical safety evaluation (Independent Safety Committee); assay type: in vivo
Excerpt: Clinical efficacy data is being obtained from evaluations of best-corrected log MAR visual acuity and standardized fluorescein angiograms. Clinical safety data obtained from general physical examinations, laboratory evaluations of blood and urine, and complete ophthalmic examinations, including indocyanine green angiography, continue to be periodically evaluated by the Independent Safety Committee overseeing this study. Clinical data from evaluations for safety and efficacy performed at Day 1-2, Week 2, Week 6, Month 3, and Month 6 following patient randomization and treatment are reported here.
Following completion of the Month 6 visit by all patients, the accumulated safety data were evaluated by the Independent Safety Committee overseeing this study. […] The most common ocular changes reported were changes in lens opacity using the Lens Opacity Classification System (LOCS) II, and included reports of nuclear color, nuclear opalescence, cortical, and posterior subcapsular changes. Cataracts are a common intercurrent disorder in this patient population, and the changes seen were documented in all treatment groups and in contralateral (untreated) eyes. The cataractous changes reported were described as mild and typically unrelated to treatment. The second most common ocular change, a decrease in vision (defined as a decrease of ≧4 log MAR lines from the previous visit), is also a common problem in this patient population. These vision decreases occurred in all treatment groups and in the contralateral eye. Other ocular changes (occurring with a frequency greater than 5%) were ptosis, ocular pain, subconjunctival hemorrhage, ocular pruritis, ocular burning/stinging, pupil disorders, foreign body sensation, ocular hyperemia, and abnormal vision. These changes were reported in all four treatment groups, in both treated eyes and contralateral eyes, were characterized as primarily mild, were generally not attributed to treatment, and were transient in nature. The single report of an IOP increase (≧10 mmHg) from Baseline occurred in a patient treated with anecortave acetate 30 mg and was attributed to intercurrent illness. Of the ocular changes reported, those most frequently attributed to study treatment were ptosis, ocular pain, subconjunctival hemorrhage, ocular pruritis, and ocular burning/stinging. These treatment-related events were mostly mild, transient, and seen within all four treatment groups.

[3] = tested on: subfoveal CNV lesion secondary to AMD; assay: Clinical trial: CNV lesion surface area change by standardized fluorescein angiograms (DARC); assay type: in vivo, patients; conditions: for inhibition of lesion growth, comparison with placebo: Month 6
Excerpt: as §1
The primary efficacy outcome for this ongoing study is the mean change from Baseline in best-corrected log MAR visual acuity. Secondary efficacy outcomes are: the percentage of patients with preservation or maintenance of vision (defined as loss of less than three log MAR lines [less than 15 log MAR letters] of visual acuity); the percentage of patients with clinically significant worsening of vision (defined as a loss of at least three log MAR lines [at least 15 log MAR letters] of visual acuity); the percentage of patients with severe vision loss (defined as a loss of at least six log MAR lines [at least 30 log MAR letters] of visual acuity); and changes in CNV lesion characteristics (defined as total lesion area, total CNV and total classic CNV).
All efficacy analyses were based on the intent-to-treat principle. All patients received the medication to which they were assigned, and were analyzed accordingly. Last-observation-carry-forward was used to impute missing values. Baseline comparisons were tested using analysis of variance (for continuous outcomes) and Pearson's chi square (for binary outcomes). Changes from baseline in visual acuity and lesion parameters were tested in a repeated measures analysis of variance model with appropriate contrasts for the 6-month comparisons. Comparisons of binary outcomes at Month 6 were evaluated using Pearson's chi-square tests. All analyses of ocular outcomes are based on changes in the study (i.e., treated) eye.
Total lesion areas, total CNV areas, and total classic CNV areas were measured and compared among treatment groups.

CC(=O)OCC(=O)[C@@]1(O)CC[C@H]2[C@@H]3CCC4=CC(=O)CC[C@]4(C)C3=CC[C@@]21C [anecortave acetate, 4,9(11)-pregnadien-17α,21-diol-3,20 dione-21 acetate]
mean change at Month 6 from Baseline in log MAR visual acuity, comparison with placebo ([1]; 3 mg): Trends also favor treatment
percentage of patients with preservation of vision (decrease of less than three log MAR lines) ([1]; 15 mg, Month 6, all patients): 88%
percentage of patients with preservation of vision (decrease of less than three log MAR lines) ([1]; 15 mg, Month 6, subgroup with predominantly classic CNV lesion, p=0.0209 vs placebo): 92%
mean change at Month 6 from Baseline in log MAR visual acuity, comparison with placebo ([1]; 15 mg, p=0.0032): statistically superior to placebo treatment
mean change at Month 6 from Baseline in log MAR visual acuity, comparison with placebo ([1]; 30 mg): Trends also favor treatment
reports of IOP increase (≧10 mmHg) from Baseline ([2]; 30 mg): single report
changes in blood chemistry, hematology, or urinalysis ([2]; all doses): No treatment-related changes
safety concerns identified by the Independent Safety Committee ([2]; all doses, after Month 6 visit): no clinically relevant medication-related or administration-related safety concerns were identified
ocular corticosteroid side effects (elevated intraocular pressure, accelerated cataract progression) ([2]; clinical study, at least 6 months exposure): no clinical evidence
inhibition of lesion growth, comparison with placebo ([3]; 3 mg): trend favoring
inhibition of total CNV surface area (percent change from Baseline), comparison with placebo ([3]; 15 mg, Month 6, p=0.0001): statistically superior to placebo treatment
inhibition of total lesion surface area (percent change from Baseline), comparison with placebo ([3]; 15 mg, Month 6, p=0.0005): statistically superior to placebo treatment
inhibition of total classic CNV surface area (percent change from Baseline), comparison with placebo ([3]; 15 mg, Month 6, p=0.0008): statistically superior to placebo treatment
inhibition of lesion growth, comparison with placebo ([3]; 30 mg): trend favoring
